{"source": "paper PMC11091243", "about": "“PD-L1 targeted peptide demonstrates potent antitumor and immunomodulatory activity in cancer immunotherapy” (Frontiers in Immunology, 2024)", "key": {"MC38 cells": {"test_system": "MC38 cells", "experiment": "Flow cytometry binding to MC38 cells", "assay_type": "cell-based, mouse", "conditions": "relatively low PD-L1 expression", "description": "(§1) Fluorescence-based ELISA and cell-based tests were used to examine the binding specificity of PPL-C to PD-L1. To perform the ELISA, fluorescent plates were coated with 100 μL human PD-L1 (hPD-L1), mouse PD-L1 (mPD-L1), and BSA in PBS (pH 7.4) overnight at 4°C, respectively. Blocked the plates with 1% BSA (in PBST) for an hour at room temperature and rinsed twice with PBST. Then added peptides (20 μmol/L FITC-labeled PPL-C/Control peptide) and incubated for 1.5 hours at room temperature. With excitation at 488 nm and emission at 515 nm, the Cytation 3 instrument (BioTek) was used to measure the relative fluorescence intensity. Both attached and detached cells were used in the cell-based flow cytometry analysis. […] After that, cells were treated for 40 minutes at 4°C on an inversion shaker with PD-L1 antibody from Biolegend and 4 μmol/L FITC-labeled peptides (PPL-C/Control peptide). Each tube was washed twice with PBS following incubation and flow cytometry was carried out using a FACSort device. FlowJo software was used to evaluate the data that was acquired."}, "MDA-MB-231 cells": {"test_system": "MDA-MB-231 cells", "experiment": "Flow cytometry binding to MDA-MB-231 cells", "assay_type": "cell-based, human", "conditions": "higher PD-L1 expression than MC38", "description": "as §1"}, "CT26 cells": {"test_system": "CT26 cells", "experiment": "CCK8 proliferation assay on CT26 cells", "assay_type": "cell-based, mouse", "conditions": "0.1-1 mg/ml, 8 or 24 h, CCK8, n = 3", "description": "To observe the impact of PPL-C on tumor cells and lymphocyte proliferation, the Counting Kit 8 (CCK8) reagent was employed. 20,000 cells/well were cultured in 96-well plates. Cells were treated for 8 or 24 hours with PPL-C (0.1, 0.25, 0.5, and 1 mg/ml) or not. Following the manufacturer guidelines, 10 µl of the CCK8 reagent (from Biotech Bioengineering, Cat: E606335) was applied to each well two hours before the incubation period ended. Using an ELISA plate reader from Molecular Devices (United States) the sample absorbance was calculated at 450 nm. To ensure repeatability, each experiment was replicated. By assessing absorbance at 450 nm, the CCK8 assay measures cell viability and proliferation."}, "human PD-L1 (hPD-L1)": {"target": "human PD-L1 (hPD-L1) (Homo sapiens, UniProt Q9NZQ7)", "sequence (Q9NZQ7 19-290)": "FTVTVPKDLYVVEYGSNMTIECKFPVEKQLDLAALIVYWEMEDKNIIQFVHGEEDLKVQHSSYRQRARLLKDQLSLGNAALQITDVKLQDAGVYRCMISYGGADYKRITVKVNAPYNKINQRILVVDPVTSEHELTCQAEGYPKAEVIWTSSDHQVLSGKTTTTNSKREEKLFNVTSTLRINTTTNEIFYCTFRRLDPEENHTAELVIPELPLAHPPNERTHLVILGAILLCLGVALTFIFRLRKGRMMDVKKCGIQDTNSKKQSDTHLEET", "experiment": "Fluorescence-based ELISA, binding specificity", "conditions": "20 μmol/L FITC-labeled peptide, 1.5 h room temperature, n = 3", "description": "as §1"}, "mouse PD-L1 (mPD-L1)": {"target": "mouse PD-L1 (mPD-L1) (Mus musculus, UniProt Q9EP73)", "sequence (Q9EP73 19-290)": "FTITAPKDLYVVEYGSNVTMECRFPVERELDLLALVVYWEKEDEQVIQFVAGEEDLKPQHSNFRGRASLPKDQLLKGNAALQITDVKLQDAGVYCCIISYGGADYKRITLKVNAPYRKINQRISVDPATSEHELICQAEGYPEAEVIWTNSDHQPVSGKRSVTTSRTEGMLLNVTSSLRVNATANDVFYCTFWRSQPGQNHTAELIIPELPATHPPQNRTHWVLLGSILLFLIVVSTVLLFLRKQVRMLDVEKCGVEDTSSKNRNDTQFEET", "experiment": "Fluorescence-based ELISA, binding specificity", "conditions": "20 μmol/L FITC-labeled peptide, 1.5 h room temperature, n = 3", "description": "as §1"}, "PD-1/PD-L1 binding": {"target": "T1, PD-1/PD-L1 binding (Homo sapiens, UniProt Q9NZQ7)", "T1 construct": "PD-1: 10377-H08H", "T1 sequence (Q9NZQ7 19-239 limits assumed)": "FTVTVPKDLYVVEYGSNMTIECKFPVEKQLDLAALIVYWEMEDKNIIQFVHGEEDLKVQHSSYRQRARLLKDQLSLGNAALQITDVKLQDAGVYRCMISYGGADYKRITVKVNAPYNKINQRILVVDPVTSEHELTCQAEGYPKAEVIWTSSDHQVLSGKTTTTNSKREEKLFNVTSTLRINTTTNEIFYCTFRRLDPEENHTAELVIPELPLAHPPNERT", "experiment": "ELISA competition of peptides with PD-1 for binding to PD-L1", "conditions": "n = 3, effect increases with peptide concentration", "description": "After seven phages were grown and purified, the solution was diluted 10 times to produce eight gradients. To ascertain the phage’s affinity for PD-L1, an ELISA test was run. Briefly, 96-well plates were filled with 150 µL of PD-L1 ([…]) in assay diluent (BioLegend, San Diego, CA), and incubated at 4°C overnight. 5% BSA in water was used to block the wells for two hours at 4°C. Following washing, 100 µL of phage diluent was added to each well, and they were shaken for two hours at room temperature. The wells were then treated with HRP-conjugated anti-M13 antibody at dose of 1:5000. With 100 µL of HRP substrate, the reaction was observed, and the OD410 was determined. By deducting the OD value of each phage binding to BSA-coated wells from the OD value of that phage binding to PD-L1, the specific binding of each phage to PD-L1 was computed. Three duplicate runs of this assay were made. GraphPad Prism 6 software was used to compute each phage binding affinity by nonlinear regression and convert it to a Scatchard plot. ELISA was used to evaluate the candidate peptides capacity to inhibit PD1/PD-L1 binding. The subsequent stages were the same as those previously outlined. Following incubation, OD410 was determined by goat anti-rabbit monoclonal antibody that had been HRP-labeled and rabbit anti-human PD-L1 protein monoclonal antibody.\nTo assess the effect of PPL-C peptide interference, PD-L1 binding to PD-1 was investigated using ELISA and cell-based analysis. For the ELISA, 100 μL of mouse PD-L1 in PBS was coated in each well of a 96-well plate and incubated the plate at 4°C overnight. On the second day, 1% BSA in PBST was used to block the plate. Each well was then filled with 200 nmol/L biotinylated PD-1 and FITC-labeled PPL-C peptides (at final concentrations of 40, 20, 10, 5, or 2.5 μmol/L) before 1.5 hours incubating at room temperature. After two PBST washes, the relative FITC fluorescence intensity was measured using a Cytation 3 instrument. […] After two PBST washes, the Cytation 3 device was used to detect PE fluorescence intensity. […] Samples were analyzed by flow cytometry."}, "[1]": {"test_system": "PD-L1-mediated suppression of CD4+ T cells", "experiment": "T-cell activation assay (CD4+ T cells on anti-CD3/PD-L1 coated plates)", "assay_type": "cell-based, mouse", "description": "Following the manufacturer’s instructions, mouse peripheral blood mononuclear cells (PBMCs) were isolated from a healthy mouse using separation fluid. Then, CD4 (L3T4) MicroBeads were used to separate CD4+ T cells from PBMCs, and a CD4-PE/Cy5 antibody was employed to determine effectiveness. Cells were adjusted to a concentration of 5×10^5 cells/mL in IMDM supplemented with 10% FBS and 20 ng/mL IL-2 to produce CD4+ T-cell blasts. A 1:1 ratio of mouse T-activator CD3/CD28 beads was introduced to the cells. Every other day, new media was added, and on day 7, cells were collected and stored for later use. 100 μL of anti-mouse CD3 (1 μg/mL) were applied to each well and incubated at 4°C overnight. Next, the wells were rinsed twice with […] of PBS. The wells were then filled with 100 μL of PD-L1 […] and the plates were incubated at 37°C for 3 hours before receiving two PBS washes. Then, varying quantities of PD-L1 monoclonal antibodies and peptides (PPL-C or control peptide) were added to the appropriate wells, and the plates were incubated at 37°C for an hour. The wells were then washed twice with PBS. Finally, CD4^+ T cells (5×10^4 cells/well) were added, then centrifugated the plate at 1,000 RMP for 2 min. The cells were then cultured for three days at 37°C in a humidified incubator with 5% CO2. A mouse IFN-γ ELISA Kit was used to assess the quantity of IFN-γ in culture supernatant. […]"}}}
{"smiles": "CC(C)[C@H](NC(=O)[C@H](CO)NC(=O)[C@@H](NC(=O)[C@@H](N)CO)C(C)C)C(=O)N[C@@H](CO)C(=O)N[C@@H](Cc1c[nH]cn1)C(=O)N[C@@H](Cc1ccccc1)C(=O)N[C@@H](CCC(N)=O)C(=O)N[C@@H](CCCCN)C(=O)N[C@H](C(=O)N[C@@H](Cc1c[nH]c2ccccc12)C(=O)N[C@H](C(=O)N[C@H](C(=O)NCC(=O)NCC(=O)NCC(=O)N[C@@H](CO)C(=O)N[C@@H](CCCCN)C(N)=O)C(C)C)C(C)C)C(C)C", "note": "[PPL-C]", "values": [{"measurement": "Affinity to MC38 cells", "setting": "MC38 cells", "result": "low affinity"}, {"measurement": "Affinity to MDA-MB-231 cells", "setting": "MDA-MB-231 cells", "result": "higher affinity"}, {"measurement": "Growth of CT26 cells after peptide administration (direct cytotoxicity)", "setting": "CT26 cells", "result": "grew normally"}, {"measurement": "Binding to hPD-L1", "setting": "human PD-L1 (hPD-L1)", "result": "cross-reactivity"}, {"measurement": "Binding to mPD-L1", "setting": "mouse PD-L1 (mPD-L1)", "result": "higher specificity"}, {"measurement": "Competition with PD-1 to bind PD-L1 (blocking of PD-L1/PD-1)", "setting": "PD-1/PD-L1 binding", "result": "significant blocking effect"}, {"measurement": "T-cell proliferation", "setting": "[1]; 20 μmol/L, CCK-8, n = 3", "result": "increased significantly"}, {"measurement": "IFN-γ release of CD4+ T lymphocytes", "setting": "[1]; versus control peptide, 3 days, ELISA, n = 3", "result": "significant increase"}]}
